We go through 27 compounds from US9695195B2, “5-HT3 receptor antagonists” (Takeda Pharmaceutical Company Limited, priority 2012, dated 2017).

Structures can show the parent of a compound that is named as a salt.

5HT3a receptor, sequence (P46098 24-478): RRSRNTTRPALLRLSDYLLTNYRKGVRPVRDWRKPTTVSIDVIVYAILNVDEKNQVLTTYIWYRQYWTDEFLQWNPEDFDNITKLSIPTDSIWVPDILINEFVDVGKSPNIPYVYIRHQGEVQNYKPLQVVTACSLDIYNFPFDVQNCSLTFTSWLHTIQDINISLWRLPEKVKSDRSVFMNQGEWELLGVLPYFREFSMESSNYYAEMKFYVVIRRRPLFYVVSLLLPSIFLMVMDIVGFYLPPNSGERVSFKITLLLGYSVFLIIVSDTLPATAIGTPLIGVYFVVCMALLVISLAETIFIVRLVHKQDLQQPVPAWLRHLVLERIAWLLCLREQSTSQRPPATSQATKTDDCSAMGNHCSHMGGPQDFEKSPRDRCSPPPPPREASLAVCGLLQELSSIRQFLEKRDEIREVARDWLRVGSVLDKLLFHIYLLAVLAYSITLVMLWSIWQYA

The assay has as its target 5HT3a receptor (Homo sapiens (Human), UniProt P46098). Kind of assay: Inhibition of Ca flux activity of 5HT3 in vitro assay. It is filed as cell-based. Conditions: 5HT3a expressed in HEK-293T cells; 5HT 216 nM; approximate values. As to the method: The 5HT3 antagonist activity of the compounds of the invention was determined by measuring the ability of the compounds to inhibit the calcium flux activity of […] receptor expressed in HEK-293T cells. HEK-293T cells were transfected with the 5HT3a expression construct using Xtreme Gene 9 (Roche) in 150 mm tissue culture treated plates and incubated for 24 hours at 37° C. Cells were then split and plated at a density of 60K cells/well in poly-lysine coated, black 96-well plates with clear bottoms (BD BioSciences) and incubated overnight at 37° C. Growth media was removed and cells loaded with 200 uL calcium indicator dye in HBSS containing 20 mM HEPES (Calcium 5 Assay kit, Molecular Devices) and incubated at 37° C. for 1 hour. While cells were incubating, the 10× antagonist and agonist/antagonist addition plates were made. For 10× antagonist plate: half log serial dilutions (final concentrations range from 10^−7 through 10^−10 with the bottom well a negative, no ligand control) were made from test compounds in DMSO at a 1000× concentration and then diluted to 10× in HBSS/20 mM HEPES. For addition plate: 5HT was diluted to 100× in HBSS/20 mM HEPES (final concentration in the assay-216 nM) and 15 uL was added to each well of the addition plate, 15 uL of 10× compound was also added to the addition plate, and finally 120 uL of HBSS/20 mM HEPES (for a total of 150 uL). Cells were then removed from the incubator and equilibrated to room temperature for 10 minutes, then 22.5 uL of 10× test compounds were added in triplicate to the plates and incubated at room temperature for 10 minutes (Tropisetron was used as a positive control in every assay). Test plate and addition plate were loaded into the FlexStation III (Molecular Devices), and using the fluidics, 22.5 uL compound additions were made (at t=˜17 seconds), and fluorescence was measured for 90 seconds, reading every 2.2 seconds. Data sets were analyzed as max minus min using Software Max Pro (Molecular Devices). IC50 curves were generated using non-linear regression in GraphPad Prism.
For `CN1[C@@H]2CC[C@H]1C[C@H](OC(=O)c1c3n(c4ccccc14)CCO3)C2` [Compound 28, (1R,3R,5S)-8-methyl-8-aza-bicyclo[3.2.1]octan-3-yl 2,3-dihydrooxazolo[3.2-a] indole-9-carboxylate, 2,2,2-trifluoroacetate], the IC50 was determined as 1.08 nM.
For `O=C(OC1C[C@H]2COC[C@@H](C1)N2)c1cn(-c2ncccn2)c2ccccc12` (stereo partly drawn) [Compound 25, (1R,5S,7S)-3-oxa-9-aza-bicyclo[3.3.1]nonan-7-yl 1-(pyrimidin-2-yl)-1H-indole-3-carboxylate, 2,2,2-trifluoro-acetate], the midpoint of inhibition, the IC50, lay at 3.88 nM.
In the case of `CN1[C@@H]2COC[C@H]1C[C@@H](OC(=O)c1cn(-c3ccc(F)nn3)c3ccccc13)C2` [Compound 137, (1R,5S,7s)-9-methyl-3-oxa-9-azabicyclo[3.3.1]nonan-7-yl 1-(6-fluoropyridazin-3-yl)-1H-indole-3-carboxylate], the IC50 was found to be 0.681 nM.
`CN1[C@@H]2CC[C@H]1C[C@H](OC(=O)c1cn(CC(F)F)c3ccc(F)cc13)C2` [Compound 27, (1R,3R,5S)-8-methyl-8-aza-bicyclo[3.2.1]octan-3-yl 1-(2,2-difluoroethyl)-5-fluoro-1H-indole-3-carboxylate, 2,2,2-trifluoroacetate] had an IC50 of 0.89 nM.
In turn, `CN1[C@@H]2CC[C@H]1CC(OC(=O)c1nn(CC(F)(F)F)c3ccccc13)C2` (stereo partly drawn) [Compound 17, (1R,3R,5S)-8-methyl-8-aza-bicyclo[3.2.1]octan-3-yl 1-(2,2,2-trifluoroethyl)-1H-indazole-3-carboxylate, 2,2,2-trifluoroacetate] came in with a concentration for half-maximal inhibition (IC50) of 4.39 nM.
Take `CN1[C@@H]2COC[C@H]1CC(OC(=O)c1cn(-c3ccsn3)c3ccccc13)C2` (stereo partly drawn) [Compound 182, (1R,5S,7S)-9-methyl-3-oxa-9-azabicyclo[3.3.1]nonan-7-yl 1-(isothiazol-3-yl)-1H-indole-3-carboxylate]: the IC50 stood at 1.62 nM.
The compound `CN1[C@@H]2CC[C@H]1CC(OC(=O)c1cn(CC(F)(F)F)c3ccc(F)cc13)C2` (stereo partly drawn) [Compound 1, (1R,3R,5S)-8-methyl-8-aza-bicyclo[3.2.1]octan-3-yl 5-fluoro-1-(2,2,2-trifluoro-ethyl)-1H-indole-3-carboxylate; 2,2,2-trifluoroacetate] showed an IC50 of 2.13 nM.
Consider `CN1[C@@H]2COC[C@H]1C[C@@H](OC(=O)c1cn(-c3cncs3)c3ccccc13)C2` [Compound 183, (1R,5S,7S)-9-methyl-3-oxa-9-azabicyclo[3.3.1]nonan-7-yl 1-(thiazol-5-yl)-1H-indole-3-carboxylate], for which 1.27 nM corresponded to half-maximal inhibition (IC50).
For `CN1[C@@H]2CC[C@H]1CC(OC(=O)c1cn(S(C)(=O)=O)c3ccccc13)C2` (stereo partly drawn) [Compound 26, (1R,3R,5S)-8-methyl-8-aza-bicyclo[3.2.1]octan-3-yl 1-(methylsulfonyl)-1H-indole-3-carboxylate, 2,2,2-trifluoro-acetate] the value was 0.54 nM; for `CN1[C@@H]2CC[C@H]1C[C@@H](OC(=O)c1c(Cl)n(S(C)(=O)=O)c3ccccc13)C2` [Compound 13, (1R,3R,5S)-8-methyl-8-aza-bicyclo[3.2.1]octan-3-yl 2-chloro-1-(methylsulfonyl)-1H-indole-3-carboxylate, 2,2,2-trifluoroacetate], 0.93 nM.
Regarding `O=C(OC1CC2CCC(C1)N2)c1cn(CC(F)(F)F)c2ccccc12` [Compound 14, (1R,3R,5S)-8-azabicyclo[3.2.1] octan-3-yl 1-(2,2,2-trifluoroethyl)-1H-indole-3-carboxylate, 2,2,2-trifluoroacetate], the IC50 was 3.71 nM.
Turning to `CN1[C@@H]2CCC[C@H]1CC(OC(=O)c1nn(CCF)c3ccccc13)C2` (stereo partly drawn) [Compound 16, (1R,3R,5S)-9-methyl-9-aza-bicyclo[3.3.1]nonan-3-yl 1-(2-fluoroethyl)-1H-indazole-3-carboxylate, 2,2,2-trifluoro-acetate; 2,2,2-trifluoroacetate], the IC50 was found to be 3.25 nM.
`O=C(OC1CC2COCC(C1)N2)c1cn(-c2ccns2)c2ccccc12` [Compound 155, (1R,5S,7s)-3-oxa-9-aza-bicyclo[3.3.1]nonan-7-yl 1-(iso-thiazol-5-yl)-1H-indole-3-carboxylate, 2,2,2-trifluoroacetic acid salt] registered an IC50 of 1.26 nM.
Consider `O=C(NC1CC2COCC(C1)N2)c1cn(CC(F)(F)F)c2ccc(F)cc12` [Compound 6, N-((1R,5S,7S)-3-oxa-9-aza-bicyclo[3.3.1]nonan-7-yl)-5-fluoro-1-(2,2,2-trifluoro-ethyl)-1H-indole-3-carboxamide, 2,2,2-trifluoroacetate], for which the IC50 stood at 2.33 nM.
For `CN1[C@@H]2COC[C@H]1CC(OC(=O)c1cn(-c3cnccn3)c3ccccc13)C2` (stereo partly drawn) [Compound 181, (1R,5S,7S)-9-methyl-3-oxa-9-azabicyclo[3.3.1]nonan-7-yl 1-(pyrazin-2-yl)-1H-indole-3-carboxylate] the value was 1.1 nM.
Take `Cc1c(C(=O)OC2C[C@H]3CC[C@@H](C2)N3C)c2ccccc2n1CCF` (stereo partly drawn) [Compound 15, (1R,3R,5S)-8-methyl-8-aza-bicyclo[3.2.1]octan-3-yl 1-(2-fluoroethyl)-2-methyl-1H-indole-3-carboxylate, 2,2,2-trifluoroacetate]: the IC50 is 0.53 nM.
The value for `O=C(OC1CC2COCC(C1)N2)c1cn(-c2ccsn2)c2ccccc12` [Compound 145, (1R,5S,7s)-3-oxa-9-aza-bicyclo[3.3.1]nonan-7-yl 1-(iso-thiazol-3-yl)-1H-indole-3-carboxylate, 2,2,2-trifluoroacetic acid salt] was 2.71 nM; that for `O=C(OC1C[C@H]2COC[C@@H](C1)N2CCF)c1cn(CC(F)F)c2ccc(F)cc12` (stereo partly drawn) [Compound 33, (1R,5S,7S)-9-(2-fluoroethyl)-3-oxa-9-azabicyclo[3.3.1] nonan-7-yl 1-(2,2-difluoroethyl)-5-fluoro-1H-indole-3-carboxylate, 2,2,2-trifluoroacetate] was 14.4 nM; that for `CN1[C@@H]2COC[C@H]1CC(OC(=O)c1cn(-c3ncccn3)c3ccccc13)C2` (stereo partly drawn) [Compound 188, (1R,5S,7S)-9-methyl-3-oxa-9-azabicyclo[3.3.1]nonan-7-yl 1-(pyrimidin-2-yl)-1H-indole-3-carboxylate] was 1.75 nM.
As to `CS(=O)(=O)n1cc(C(=O)O[C@H]2C[C@H]3COC[C@@H](C2)N3)c2cc(F)ccc21` [Compound 19, (1R,5S,7S)-3-oxa-9-aza-bicyclo[3.3.1]nonan-7-yl 5-fluoro-1-(methylsulfonyl)-1H-indole-3-carboxylate, 2,2,2-trifluoroacetate], the 50% inhibitory concentration (IC50) worked out at 7.72 nM.
`CN1[C@@H]2COC[C@H]1CC(OC(=O)c1cn(-c3cnc(F)cn3)c3ccccc13)C2` (stereo partly drawn) [Compound 184, (1R,5S,7S)-9-methyl-3-oxa-9-aza-bicyclo[3.3.1]nonan-7-yl 1-(5-fluoropyrazin-2-yl)-1H-indole-3-carboxylate] registered a 50% inhibitory concentration (IC50) of 1.25 nM.
On to `CN1[C@@H]2CC[C@H]1CC(NC(=O)c1cn(S(C)(=O)=O)c3ccc(F)cc13)C2` (stereo partly drawn) [Compound 18, 5-fluoro-N-((1R,3R,5S)-8-methyl-8-azabicyclo[3.2.1]octan-3-yl)-1-(methylsulfonyl)-1H-indole-3-carboxamide, 2,2,2-trifluoroacetate], for which the IC50 stood at 4.06 nM.
In the case of `CN1[C@@H]2COC[C@H]1CC(OC(=O)c1cn(-c3cncnc3)c3ccccc13)C2` (stereo partly drawn) [Compound 189, (1R,5S,7S)-9-methyl-3-oxa-9-azabicyclo[3.3.1]nonan-7-yl 1-(pyrimidin-5-yl)-1H-indole-3-carboxylate], it took 0.46 nM to reach half-maximal inhibition (IC50).
The value for `N#CCn1cc(C(=O)OC2C[C@H]3COC[C@@H](C2)N3)c2ccccc21` (stereo partly drawn) [Compound 187, (1R,5S,7S)-3-oxa-9-aza-bicyclo[3.3.1]nonan-7-yl 1-(cyanomethyl)-1H-indole-3-carboxylate] was 1.18 nM.
In turn, `CN1[C@@H]2CCC[C@H]1CC(OC(=O)c1nn(S(C)(=O)=O)c3ccccc13)C2` (stereo partly drawn) [Compound 4, (1R,3R,5S)-9-methyl-9-aza-bicyclo[3.3.1]nonan-3-yl 1-(methylsulfonyl)-1H-indazole-3-carboxylate, 2,2,2-trifluoroacetate] returned an IC50 of 1.4 nM.
In turn, `CN1[C@@H]2CCC[C@H]1CC(OC(=O)c1cn(S(C)(=O)=O)c3ccc(F)cc13)C2` (stereo partly drawn) [Compound 34, (1R,3R,5S)-9-methyl-9-aza-bicyclo[3.3.1]nonan-3-yl 5-fluoro-1-(methylsulfonyl)-1H-indole-3-carboxylate, 2,2,2-trifluoroacetate] registered an IC50 of 0.74 nM.
`CN1[C@@H]2CCC[C@H]1CC(OC(=O)c1c(Cl)n(CCF)c3ccccc13)C2` (stereo partly drawn) [Compound 30, (1R,3R,5S)-9-methyl-9-aza-bicyclo[3.3.1]nonan-3-yl 2-chloro-1-(2-fluoroethyl)-1H-indole-3-carboxylate, 2,2,2-trifluoroacetate] returned an IC50 of 0.2 nM.

Usually IC50 stands for the concentration at which inhibition is half-maximal.
